{
  "source": "patent US8747890B2",
  "about": "(priority 2009, dated 2014)",
  "key": {"[1]": {"conditions": "human, whole blood, iv, 9 mg/m2"}, "[2]": {"assay": "Extrapolation of blood Cmax to an 80 kg human after intravenous infusion", "conditions": "440 mg/M^2 one hour infusion"}},
  "data": [
    {"smiles": "COc1cc(C=CC(=O)CC(=O)C=Cc2ccc(O)c(OC)c2)ccc1O", "note": "[curcumin, 1,7-bis(4-hydroxy-3-methoxyphenyl)-1,6-heptadiene-3,5-dione]", "values": [
      {"measurement": "Cmax", "setting": "[1]", "result": 3400, "unit": "ng/mL"},
      {"measurement": "Cmax extrapolated to humans", "setting": "[2]", "result": 160000, "unit": "ng/mL"}
    ]}
  ]
}
